According to PMC5847527, “Identification of a novel 2-oxindole fluorinated derivative as in vivo antitumor agent for prostate cancer acting via AMPK activation” (Scientific Reports, 2018):
pIC50: −log10 of the molar value.

Experiments:
Format in all cases: cell-based, human
AMPK = AMPK and ACC phosphorylation by Western blot in LNCaP cells; conditions: 25 µM, 1 hour
Procedure: Figure 2 Effect of 2-oxindole fluorinated derivatives on AMPK activity in prostate cancer cells. (A) PC-3, DU145 and LNCaP cells were treated with 25 µM of the selected 2-oxindole fluorinated derivatives for 1 hour. Levels of the phosphorylated AMPK (pAMPK), phosphorylated ACC (pACC) and their total forms were determined by Western blot. Upper panel, a representative Western blot of three different experiments. β-tubulin (β-Tub) serves as a loading control. […] Lower panels, densitometric analyses of bands represented as the mean of the ratio pAMPK/AMPK or pACC/ACC ± SD of three different experiments. *p < 0.05 compared with the controls by one-way ANOVA followed by Fisher’s LSD test; ^#p < 0.05 compared with 2-oxindole fluorinated derivates or with the AMPK activators AMP or A769662 by one-way ANOVA followed by Tukey test.
Similar results were obtained although AMPK stimulation by compound 8c was not so strong (Fig. 2A). […]
Cells were lysed in Lysis buffer (50 mM Tris pH 7.4, 0.8 M NaCl, 5 mM MgCl2, 0.1% Triton X-100) containing Protease Inhibitor and Phosphatase inhibitor Cocktails (Roche, Basel, Switzerland). Protein concentrations were measured by BioRad™ protein assay kit (Richmond, CA, USA). […] Films were analyzed by densitometry. […]

DU145 cells = assay: Cell viability by MTT assay, DU145
Procedure: Figure 3 Comparison of the effect of 2-oxindole fluorinated derivatives on the proliferation of human prostate cancer cells. (A) Normal (PTN2 and RWPE-1) and cancer (PC3,DU145 and LNCaP) prostate cells were treated with different doses of the compounds for 24 hours and cell viability was monitored by MTT assay. […] (C) PC-3, DU145 and LNCaP cells were treated with 25 µM of compound 8c for different times. Values were normalized with the control and represent the mean ± SD of at least three independent experiments. *p < 0.05 and **p < 0.01 compared to control by the Student’s - test.
Human prostate cancer epithelial PC-3, DU145 and LNCaP and human prostate normal RWPE-1 cells were purchased from American Type Culture Collection (ATCC CRL-1435 CRL-1740 and CRL 11609 respectively) (Rockville, MD, USA). The human prostate normal PNT2 cell line was purchased to ECACC (European Collection of Cell cultures, Salisbury, SP4 0JG, UK). Cells were routinely grown in RPMI 1640 medium supplemented with 100 IU/ml penicillin G sodium, 100 µg/ml streptomycin sulfate, 0.25 µg/ml amphotericin B (Invitrogen, Paisley, UK) and 10% fetal calf serum. Cells were used at passages between 10–20. For treatment experiments, cells were plated and grown over night, the medium was then replaced with serum-free RPMI 1640 for 24 hours and then incubated with different doses of the compounds for the indicated times.
Cell viability was determined by 3-(4,5-dimethylthiazol-2-yl)-2,5-diphenyltetrazolium bromide (MTT) (Sigma-Aldrich) method. In brief, a total of 5000 cells/well were seeded into 12-well plate in a final volume of 1 mL. After treatments, 20 µl MTT solution (5 mg/ml in PBS) was added to the medium and cells were incubated at 37 °C for 4 h. Then, the supernatant was discarded and isopropanol was added to dissolve the formazan crystals. Treatments were carried out in triplicate. The optical density in each well was evaluated by measurement of absorbance at 490 and 650 nm using a microplate reader (ELX 800 Bio-Tek Intruments, INC). IC50 values were calculated using GraphPad Prism vs 6.0 (GraphPad Software, Inc, La Jolla, CA, USA). Cell viability was also determined by counting viable and dead cells by Trypan blue staining. Trypan blue positive and negative cells were counted using a Countess^TM automated cell counter (Invitrogen, Carlsbad, CA, USA). Results were expressed in relation to total number of cells counted.

Androgen Receptor (AR) = assay: Androgen Receptor expression by Western blot in LNCaP cells; conditions: 25 µM, 24 hours
Procedure: Figure 5 AMPK activation by compound 8c in prostate cancer cells. (A) PC-3 and LNCaP cells were treated with vehicle, 25 µM compound 8c, 25 µM compound 8c + 5 μM Dorsomorphin (8c + D) or 5 μM Dorsomorphin (D), for 1 hour or 24 hours and levels of the phosphorylated AMPK (pAMPK), phosphorylated ACC (pACC), phosphorylated Raptor (pRaptor) forms and HIF1α were determined by Western blot. Upper panel, representative Western blot of three different experiments. β-tubulin (β-Tub) serves as a loading control. Lower panel, densitometric analyses of bands represented as the mean of the ratio pAMPK/AMPK or pACC/ACC. (B) Cell viability monitored by MTT assay in PC-3 and LNCaP cells treated with vehicle, 25 µM and 50 μM compound 8c alone or in the presence of 5 μM Dorsomorphin or transfected with control siRNA (siC) or α1AMPK-selective siRNA (siAMPK). (C) LNCaP cells were treated with vehicle, 25 µM compound 8c, 25 µM compound 8c + 5 μM Dorsomorphin (8c + D) or 5 μM Dorsomorphin (D), for 24 hours and levels of Androgen Receptor (AR), Prostate specific antigen (PSA) and Prostate specific membrane antigen (PSMA) were determined by Western blot.Values were normalized with the control and represent the mean ± SD of at least three independent experiments. *p < 0.05 and **p < 0.01 compared to control and ^#p < 0.05 and ^##p < 0.01 compared with 8c-treated group by the Student’s t-test. […]

SMILES: O=C1Nc2ccccc2C1(F)Cc1ccc(-c2ccccc2)o1 (stereo not shown) [Compound 8c, 3-fluoro-3-((5-phenylfuran-2-yl)methyl)indolin-2-one]
- AMPK phosphorylation (pAMPK/AMPK) (AMPK): notably activated AMPK
- inhibitory efficacy on cells viability at 50 μM (DU145 cells; DU145, 50 μM): 88%
- pIC50 (DU145 cells; Homo sapiens, DU-145, DU145, MTT, 24 hours): 4.72
- expression of AR (Androgen Receptor (AR)): markedly reduced the expression of AR
